Assay results published in article PMC8655237 (Journal of Advanced Research, 2021).
One block for each compound: values may come before it. Where a SMILES comes first, the peptide text is derived from it. [ ]: non-standard residue; d: D form. The star is where a group is joined. Sta = CC(C)C[C@H](N)[C@@H](O)CC(=O)O; Isovaleryl = CC(C)CC(=O)*

What was measured:
[1] = tested on: Ehrlich Ascites Carcinoma (EAC); test: Ehrlich ascites carcinoma; format: in vivo, Swiss albino mice; conditions: 20 mg/kg bw i.p., day 1-9
[2] = tested on: Ornithine decarboxylase (ODC); test: ODC assay, cell-free; format: biochemical; conditions: read-out: IC50 ODC; cell free (In vitro)
ODC mRNA = test: Real-time qPCR expression analysis; format: cell-based, human; conditions: GAPDH internal control
MDA-MB-231 [3] = test: NRU antiproliferative assay; format: cell-based; conditions: Homo sapiens, MDA-MB-231, 24 h, read-out: IC50 (NRU)
MDA-MB-231 [4] = test: MTT antiproliferative assay; format: cell-based; conditions: Homo sapiens, MDA-MB-231, 24 h, read-out: IC50 (MTT)
A431 cells [5] = test: Mitochondrial membrane potential; format: cell-based, human; conditions: A431, flow cytometry, 1 µM
PC-3 [6] = test: MTT antiproliferative assay; format: cell-based; conditions: Homo sapiens, PC-3, 24 h, read-out: IC50 (MTT)
PC-3 [7] = test: NRU antiproliferative assay; format: cell-based; conditions: Homo sapiens, PC-3, 24 h, read-out: IC50 (NRU)
MDA-MB-231 [8] = test: SRB antiproliferative assay; format: cell-based; conditions: Homo sapiens, MDA-MB-231, 24 h, read-out: IC50 (SRB)
A431 cells [9] = test: DCFH-DA ROS assay; format: cell-based, human; conditions: A431, flow cytometry, 1 µM
A431 [10] = test: SRB antiproliferative assay; format: cell-based; conditions: Homo sapiens, A-431, 24 h, read-out: IC50 (SRB)
PC-3 [11] = test: SRB antiproliferative assay; format: cell-based; conditions: Homo sapiens, PC-3, 24 h, read-out: IC50 (SRB)
A431 [12] = test: NRU antiproliferative assay; format: cell-based; conditions: Homo sapiens, A-431, 24 h, read-out: IC50 (NRU)
A431 [13] = test: MTT antiproliferative assay; format: cell-based; conditions: Homo sapiens, A-431, 24 h, read-out: IC50 (MTT)
DHFR mRNA = test: Real-time qPCR expression analysis; format: cell-based, human; conditions: GAPDH internal control
hyaluronidase (HYAL) [14] = test: Hyaluronidase assay, cell-based; parameters: species or system human
HYAL mRNA = test: Real-time qPCR expression analysis; format: cell-based, human; conditions: GAPDH internal control
hyaluronidase (HYAL) [15] = test: Hyaluronidase assay, cell-free; format: biochemical; conditions: read-out: IC50 HYAL; cell free (In vitro)
CAT D mRNA = test: Real-time qPCR expression analysis; format: cell-based, human; conditions: GAPDH internal control
FaDu [16] = test: SRB antiproliferative assay; format: cell-based; conditions: Homo sapiens, 24 h, read-out: IC50 (SRB)
K562 [17] = test: MTT antiproliferative assay; format: cell-based; conditions: Homo sapiens, K562, 24 h, read-out: IC50 (MTT)
FaDu [18] = test: MTT antiproliferative assay; format: cell-based; conditions: Homo sapiens, 24 h, read-out: IC50 (MTT)
K562 [19] = test: SRB antiproliferative assay; format: cell-based; conditions: Homo sapiens, K562, 24 h, read-out: IC50 (SRB)
tubulin protein = tubulin protein (Sus scrofa, UniProt P02550+P02554); test: Tubulin polymerization assay; format: biochemical; conditions: 10 μM
K562 [20] = test: NRU antiproliferative assay; format: cell-based; conditions: Homo sapiens, K562, 24 h, read-out: IC50 (NRU)
FaDu [21] = test: NRU antiproliferative assay; format: cell-based; conditions: Homo sapiens, 24 h, read-out: IC50 (NRU)
A549 [22] = test: NRU antiproliferative assay; format: cell-based; conditions: Homo sapiens, A549, 24 h, read-out: IC50 (NRU)
A549 [23] = test: MTT antiproliferative assay; format: cell-based; conditions: Homo sapiens, A549, 24 h, read-out: IC50 (MTT)
A549 [24] = test: SRB antiproliferative assay; format: cell-based; conditions: Homo sapiens, A549, 24 h, read-out: IC50 (SRB)
LOX-5 mRNA = test: Real-time qPCR expression analysis; format: cell-based, human; conditions: GAPDH internal control
[25] = MDA-MB-231, with respect to control

Sequence of tubulin protein (P02550 whole entry): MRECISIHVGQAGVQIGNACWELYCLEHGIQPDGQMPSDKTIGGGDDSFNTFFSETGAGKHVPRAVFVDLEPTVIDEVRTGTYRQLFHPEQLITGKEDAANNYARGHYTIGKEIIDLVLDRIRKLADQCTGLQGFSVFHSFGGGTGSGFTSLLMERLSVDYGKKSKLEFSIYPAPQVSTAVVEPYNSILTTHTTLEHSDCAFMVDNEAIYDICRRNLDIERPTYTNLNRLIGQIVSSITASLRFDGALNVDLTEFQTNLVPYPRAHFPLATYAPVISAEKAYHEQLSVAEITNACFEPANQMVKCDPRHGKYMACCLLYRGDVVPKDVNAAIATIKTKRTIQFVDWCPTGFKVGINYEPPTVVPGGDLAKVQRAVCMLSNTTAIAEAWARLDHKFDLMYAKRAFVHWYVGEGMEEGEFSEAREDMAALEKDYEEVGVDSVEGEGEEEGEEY
Sequence of tubulin protein (P02554 whole entry): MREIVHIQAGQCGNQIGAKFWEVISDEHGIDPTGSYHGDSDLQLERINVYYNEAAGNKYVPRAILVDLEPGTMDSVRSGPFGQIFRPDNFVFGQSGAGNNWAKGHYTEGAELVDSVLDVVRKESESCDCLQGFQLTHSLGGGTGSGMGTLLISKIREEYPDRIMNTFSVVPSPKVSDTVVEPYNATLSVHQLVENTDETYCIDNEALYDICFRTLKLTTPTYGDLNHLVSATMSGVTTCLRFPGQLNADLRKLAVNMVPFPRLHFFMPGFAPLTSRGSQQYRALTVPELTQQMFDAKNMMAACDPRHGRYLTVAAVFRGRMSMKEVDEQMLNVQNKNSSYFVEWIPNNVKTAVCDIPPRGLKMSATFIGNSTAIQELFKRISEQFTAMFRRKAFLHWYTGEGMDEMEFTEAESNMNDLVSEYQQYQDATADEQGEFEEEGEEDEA

SMILES: O=c1[nH]cc(F)c(=O)[nH]1 [5-fluorouracil, reference compound]
reduction of EAC tumor formation (tumor growth inhibition) [1]: 98.39%

IC50 [2]: 7.54 ± 5.8 µM
SMILES: NCCC[C@](N)(C(=O)O)C(F)F [DFMO, α-difluoromethylornithine]
ODC mRNA expression level (ODC mRNA; A431, with respect to control): 5.42 fold change | ODC mRNA expression level (ODC mRNA; A549, with respect to control): 4.24 fold change | ODC mRNA expression level (ODC mRNA; FaDu, with respect to control): 2.57 fold change | ODC mRNA expression level (ODC mRNA; K562, with respect to control): 4.07 fold change | ODC mRNA expression level (ODC mRNA; [25]): 3.67 fold change | ODC mRNA expression level (ODC mRNA; PC-3, with respect to control): 6.55 fold change

IC50 (MDA-MB-231 [3]): 3.64 ± 1.8 µM | IC50 (MDA-MB-231 [4]): 1.55 ± 0.95 µM | IC50 (PC-3 [6]): 2.24 ± 1.56 µM | IC50 (PC-3 [7]): 1.2 ± 0.36 µM | IC50 (MDA-MB-231 [8]): 1.51 ± 0.86 µM | IC50 (A431 [10]): 1.21 ± 0.03 µM | IC50 (PC-3 [11]): 3 ± 1.16 µM | IC50 (A431 [12]): 1.15 ± 0.37 µM | IC50 (A431 [13]): 1.6 ± 0.09 µM
SMILES: COc1cccc2c1C(=O)c1c(O)c3c(c(O)c1C2=O)C[C@@](O)(C(=O)CO)C[C@@H]3O[C@H]1C[C@H](N)[C@H](O)[C@H](C)O1 [Doxorubicin, reference compound]
total of FITC mean (Rh123) (A431 cells [5]): 2735 ± 5.65 | total mean of DCF positive cells (A431 cells [9]): 370 ± 14.14

SMILES: CN(Cc1cnc2nc(N)nc(N)c2n1)c1ccc(C(=O)N[C@@H](CCC(=O)O)C(=O)O)cc1 [MTX, Methotrexate]
DHFR mRNA expression level (DHFR mRNA; A431, with respect to control): 2.92 fold change | DHFR mRNA expression level (DHFR mRNA; A549, with respect to control): 2.20 fold change | DHFR mRNA expression level (DHFR mRNA; FaDu, with respect to control): 2.82 fold change | DHFR mRNA expression level (DHFR mRNA; K562, with respect to control): 2.20 fold change | DHFR mRNA expression level (DHFR mRNA; [25]): 2.59 fold change | DHFR mRNA expression level (DHFR mRNA; PC-3, with respect to control): 2.0 fold change

IC50 (hyaluronidase (HYAL) [14]; read-out: IC50 HYAL, A431): 8.2 ± 1.42 µM | IC50 (hyaluronidase (HYAL) [14]; read-out: IC50 HYAL, A549): 13.7 ± 4.37 µM | IC50 (hyaluronidase (HYAL) [14]; read-out: IC50 HYAL, FaDu): 7.44 ± 0.67 µM | IC50 (hyaluronidase (HYAL) [14]; read-out: IC50 HYAL, K562): 7.56 ± 0.59 µM | IC50 (hyaluronidase (HYAL) [14]; read-out: IC50 HYAL, MDA-MB-231): 14.6 ± 3.07 µM | IC50 (hyaluronidase (HYAL) [14]; read-out: IC50 HYAL, PC-3): 9.44 ± 3.13 µM | IC50 (hyaluronidase (HYAL) [15]): 5.92 ± 0.7 µM
SMILES: CC(=O)N[C@@H](CS)C(=O)O [NAC, N-acetyl cysteine]
HYAL mRNA expression level (HYAL mRNA; A431, with respect to control): 4.50 fold change | HYAL mRNA expression level (HYAL mRNA; A549, with respect to control): 4.09 fold change | HYAL mRNA expression level (HYAL mRNA; FaDu, with respect to control): 6.66 fold change | HYAL mRNA expression level (HYAL mRNA; K562, with respect to control): 8.98 fold change | HYAL mRNA expression level (HYAL mRNA; [25]): 6.87 fold change | HYAL mRNA expression level (HYAL mRNA; PC-3, with respect to control): 5.64 fold change

SMILES: CC(C)CC(=O)N[C@H](C(=O)N[C@H](C(=O)N[C@@H](CC(C)C)[C@@H](O)CC(=O)N[C@@H](C)C(=O)N[C@@H](CC(C)C)[C@@H](O)CC(=O)O)C(C)C)C(C)C [PEP A, pepstatin A, reference compound] (Isovaleryl-VV[Sta]A[Sta]-OH)
CAT D mRNA expression level (CAT D mRNA; A431, with respect to control): 1.61 fold change | CAT D mRNA expression level (CAT D mRNA; A549, with respect to control): 2.77 fold change | CAT D mRNA expression level (CAT D mRNA; FaDu, with respect to control): 2.22 fold change | CAT D mRNA expression level (CAT D mRNA; K562, with respect to control): 3.12 fold change | CAT D mRNA expression level (CAT D mRNA; [25]): 1.81 fold change | CAT D mRNA expression level (CAT D mRNA; PC-3, with respect to control): 1.66 fold change

SMILES: COc1cc([C@@H]2c3cc4c(cc3[C@H](O)[C@H]3COC(=O)[C@H]23)OCO4)cc(OC)c1OC [Podophyllotoxin]
IC50 (FaDu [16]): 34.1 ± 1.79 µM | IC50 (K562 [17]): 46.4 ± 4.27 µM | IC50 (FaDu [18]): 16.2 ± 1.04 µM | IC50 (K562 [19]): 50.26 ± 0.45 µM | effect on tubulin polymerization (tubulin protein): inhibit the polymerization of α and β tubulin | IC50 (K562 [20]): 32.3 ± 3.11 µM | IC50 (FaDu [21]): 25.3 ± 0.28 µM

IC50 (A549 [22]): 1.18 ± 0.13 µM | IC50 (A549 [23]): 2.1 ± 0.81 µM | IC50 (A549 [24]): 1.15 ± 0.16 µM | effect on tubulin polymerization (tubulin protein): stabilizes the tubulin polymerization
SMILES: CC(=O)O[C@H]1C(=O)[C@@]2(C)[C@H]([C@H](OC(=O)c3ccccc3)[C@]3(O)C[C@H](OC(=O)[C@H](O)[C@@H](NC(=O)c4ccccc4)c4ccccc4)C(C)=C1C3(C)C)[C@]1(OC(C)=O)CO[C@@H]1C[C@@H]2O [Taxol, paclitaxel]

SMILES: CC(c1cc2ccccc2s1)N(O)C(N)=O (stereo not drawn) [Zileuton]
LOX-5 mRNA expression level (LOX-5 mRNA; A431, with respect to control): 3.10 fold change | LOX-5 mRNA expression level (LOX-5 mRNA; FaDu, with respect to control): 2.96 fold change | LOX-5 mRNA expression level (LOX-5 mRNA; K562, with respect to control): 3.01 fold change | LOX-5 mRNA expression level (LOX-5 mRNA; [25]): 3.09 fold change | LOX-5 mRNA expression level (LOX-5 mRNA; PC-3, with respect to control): 2.22 fold change
